Measurements: patent US11667602B2, “Compounds and their use” (AstraZeneca AB, priority 2020, dated 2023)

Target: T1, human RXFP1 (Homo sapiens, UniProt Q9HBX9)
T1 sequence (Q9HBX9 1-757): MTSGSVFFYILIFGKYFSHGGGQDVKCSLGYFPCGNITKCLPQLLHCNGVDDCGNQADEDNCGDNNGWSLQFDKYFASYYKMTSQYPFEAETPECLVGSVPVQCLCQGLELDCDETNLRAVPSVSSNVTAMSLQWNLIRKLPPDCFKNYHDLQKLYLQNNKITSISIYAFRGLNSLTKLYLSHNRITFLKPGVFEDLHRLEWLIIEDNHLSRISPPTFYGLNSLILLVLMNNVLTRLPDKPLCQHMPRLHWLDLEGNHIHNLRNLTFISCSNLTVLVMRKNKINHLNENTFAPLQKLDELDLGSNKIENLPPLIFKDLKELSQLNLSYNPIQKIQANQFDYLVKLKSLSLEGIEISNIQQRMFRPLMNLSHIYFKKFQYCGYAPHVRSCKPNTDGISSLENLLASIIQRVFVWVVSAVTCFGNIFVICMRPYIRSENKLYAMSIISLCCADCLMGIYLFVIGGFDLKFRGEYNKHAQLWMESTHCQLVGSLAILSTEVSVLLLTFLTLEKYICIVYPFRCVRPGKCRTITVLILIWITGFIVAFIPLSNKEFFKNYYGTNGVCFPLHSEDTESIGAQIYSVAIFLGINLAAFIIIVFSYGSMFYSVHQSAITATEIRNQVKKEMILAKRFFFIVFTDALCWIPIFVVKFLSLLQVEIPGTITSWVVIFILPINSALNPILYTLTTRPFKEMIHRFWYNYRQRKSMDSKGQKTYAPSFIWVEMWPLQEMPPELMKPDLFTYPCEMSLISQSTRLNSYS
Experiment: RXFP1 Hu cAMP (Test A)
Assay type: cell-based
Parameters: expressed in transfected cells; host or cells: Jump-In T-REx CHO-K1 cells (ThermoFisher), induced with 10 ng/ml doxycycline for 24 h
Settings: RXFP1 Hu cAMP; for EC50: read-out: Test A EC50
Outline: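 Cells: CHO-K1 stably carrying human RXFP1, expressed after 24 h 10 ng/ml doxycycline; 0.5 mM IBMX final, HTRF detection after 2 h at room temperature.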

SMILES: COc1cc(F)c(OCC23CCC(C(=O)O)(CC2)CC3)cc1C(=O)N[C@@H]1[C@H]2CC[C@H](C2)[C@@H]1C(=O)Nc1cccc(S(=O)(=O)C(F)(F)F)c1 [Example 441]
- EC50: > 40000 nM

SMILES: COc1cc(F)c(O[C@H]2CC[C@](C)(C(=O)O)CC2)cc1C(=O)NC1[C@H]2CC[C@H](C2)[C@@H]1C(=O)Nc1cccc(S(=O)(=O)C(F)(F)F)c1 (stereo partly drawn) [Example 445]
- Test A Sinf: 101%

SMILES: COc1cc(F)c(OC2CCC(N)(C(=O)O)CC2)cc1C(=O)N[C@@H]1[C@H]2CC[C@H](C2)[C@@H]1C(=O)Nc1cccc(S(=O)(=O)C(F)(F)F)c1 (stereo partly drawn) [Example 458, 1-Amino-4-(2-fluoro-4-methoxy-5-(((1S,2R,3S,4R)-3-((3-((trifluoromethyl)sulfonyl)phenyl)carbamoyl)bicyclo[2.2.1]heptan-2-yl)carbamoyl)phenoxy)cyclohexane-1-carboxylic acid]
- Test A Sinf: 104%
- EC50: 110 nM

SMILES: COc1cc(F)c(O[C@H]2CC[C@@H](NS(C)(=O)=O)CC2)cc1C(=O)N[C@@H]1[C@H]2CC[C@H](C2)[C@@H]1C(=O)Nc1cccc(S(=O)(=O)C(F)(F)F)c1 [Example 459, (1R,2S,3R,4S)-3-(4-Fluoro-2-methoxy-5-(((1s,4S)-4-(methylsulfonamido)cyclohexyl)oxy)benzamido)-N-(3-((trifluoromethyl)sulfonyl)phenyl)bicyclo[2.2.1]heptane-2-carboxamide]
- Test A Sinf: 91%
- EC50: 320 nM

SMILES: COc1cc(F)c(O[C@H]2CC[C@H](S(N)(=O)=O)CC2)cc1C(=O)N[C@@H]1[C@@H]2CC[C@@H](C2)[C@@H]1C(=O)Nc1cccc(S(=O)(=O)C(F)(F)F)c1 [Example 462, (1S,2S,3R,4R)-3-(4-fluoro-2-methoxy-5-(((1r,4R)-4-sulfamoylcyclohexyl)oxy)benzamido)-N-(3-((trifluoromethyl)sulfonyl)phenyl)bicyclo[2.2.1]heptane-2-carboxamide]
- Test A Sinf: 125%

SMILES: COc1cc(F)c(O[C@H]2CC[C@@H](S(N)(=O)=O)CC2)cc1C(=O)N[C@@H]1[C@@H]2CC[C@@H](C2)[C@@H]1C(=O)Nc1cccc(S(=O)(=O)C(F)(F)F)c1 [Example 463, (1S,2S,3R,4R)-3-(4-Fluoro-2-methoxy-5-(((1s,4S)-4-sulfamoylcyclohexyl)oxy)benzamido)-N-(3-((trifluoromethyl)sulfonyl)phenyl)bicyclo[2.2.1]heptane-2-carboxamide]
- Test A Sinf: 111%
- EC50: 340 nM

SMILES: COc1cc(F)c(OC[C@H]2C[C@H](C(=O)O)C2)cc1C(=O)N[C@@H]1[C@@H]2CC[C@@H](C2)[C@@H]1C(=O)Nc1cccc(S(=O)(=O)C(F)(F)F)c1 [Example 472, (1R,3r)-3-((2-Fluoro-4-methoxy-5-(((1R,2R,3S,4S)-3-((3-((trifluoromethyl)sulfonyl)phenyl)carbamoyl)bicyclo[2.2.1]heptan-2-yl)carbamoyl)phenoxy)methyl)cyclobutane-1-carboxylic acid]
- Test A Sinf: 91%

SMILES: COc1cc(F)c(OC[C@H]2C[C@@H](C(=O)O)C2)cc1C(=O)N[C@@H]1[C@@H]2CC[C@@H](C2)[C@@H]1C(=O)Nc1cccc(S(=O)(=O)C(F)(F)F)c1 [Example 473, (1S,3s)-3-((2-Fluoro-4-methoxy-5-(((1R,2R,3S,4S)-3-((3-((trifluoromethyl)sulfonyl)phenyl)carbamoyl)bicyclo[2.2.1]heptan-2-yl)carbamoyl)phenoxy)methyl)cyclobutane-1-carboxylic acid]
- Test A Sinf: 104%
- EC50: 140 nM

SMILES: COc1cc(F)c(OC2CC(CC(=O)O)C2)cc1C(=O)NC1C2CCC(C2)C1C(=O)Nc1cccc(S(=O)(=O)C(F)(F)F)c1 [Example 474, 2-((1R,3r)-3-(2-Fluoro-4-methoxy-5-(((1R,2R,3S,4S)-3-((3-((trifluoromethyl)sulfonyl)phenyl)carbamoyl)bicyclo[2.2.1]heptan-2-yl)carbamoyl)phenoxy)cyclobutyl)acetic acid]
- Test A Sinf: 118%
- EC50: 650 nM

SMILES: COc1cc(F)c(O[C@H]2C[C@@H](CC(=O)O)C2)cc1C(=O)N[C@@H]1[C@@H]2CC[C@@H](C2)[C@@H]1C(=O)Nc1cccc(S(=O)(=O)C(F)(F)F)c1 [Example 475, 2-((1S,3s)-3-(2-Fluoro-4-methoxy-5-(((1R,2R,3S,4S)-3-((3-((trifluoromethyl)sulfonyl)phenyl)carbamoyl)bicyclo[2.2.1]heptan-2-yl)carbamoyl)phenoxy)cyclobutyl)acetic acid]
- Test A Sinf: 100%
- EC50: 200 nM

SMILES: COc1cc(F)c(OC2CCC(C)(CC(=O)O)CC2)cc1C(=O)NC1C2CCC(C2)C1C(=O)NCC1(C)CCC1 [Example 476, 2-((1S,4s)-4-(2-Fluoro-4-methoxy-5-(((1S,2R,3S,4R)-3-(((1-methylcyclobutyl)methyl)carbamoyl)bicyclo[2.2.1]heptan-2-yl)carbamoyl)phenoxy)-1-methylcyclohexyl)acetic acid]
- Test A Sinf: 81%
- EC50: 300 nM

SMILES: COc1cc(F)c(O[C@H]2CC[C@](C)(CC(=O)O)CC2)cc1C(=O)N[C@@H]1[C@H]2CC[C@H](C2)[C@@H]1C(=O)NCC1(C)CCC1 [Example 477, 2-((1R,4r)-4-(2-Fluoro-4-methoxy-5-(((1S,2R,3S,4R)-3-(((1-methylcyclobutyl)methyl)carbamoyl)bicyclo[2.2.1]heptan-2-yl)carbamoyl)phenoxy)-1-methylcyclohexyl)acetic acid]
- Test A Sinf: 84%

SMILES: COC[C@]1(C(=O)O)CC[C@@H](Oc2cc(C(=O)N[C@@H]3[C@@H]4CC[C@@H](C4)[C@@H]3C(=O)Nc3cccc(S(=O)(=O)C(F)(F)F)c3)c(OC)cc2F)CC1 [Example 479]
- Test A Sinf: 104%
- EC50: 7.8 nM

SMILES: COC[C@]1(C(=O)O)CC[C@H](Oc2cc(C(=O)N[C@@H]3[C@@H]4CC[C@@H](C4)[C@@H]3C(=O)Nc3cccc(S(=O)(=O)C(F)(F)F)c3)c(OC)cc2F)CC1 [Example 480]
- Test A Sinf: 100%
- EC50: 98 nM

SMILES: COC[C@]1(C(=O)O)CC[C@@H](Oc2cc(C(=O)N[C@@H]3[C@H]4CC[C@H](C4)[C@@H]3C(=O)NCC(C)(C)C)c(OC)cc2F)CC1 [Example 481]
- Test A Sinf: 96%

SMILES: COc1cc(C#N)c(Oc2ccc(C(=O)O)cc2)cc1C(=O)N[C@@H]1[C@H]2CC[C@H](C2)[C@@H]1C(=O)NCC1(C)CCC1 [Example 483]
- Test A Sinf: 92%
- EC50: 610 nM

SMILES: COC(=O)[C@]1(C(=O)O)CC[C@@H](Oc2cc(C(=O)N[C@@H]3[C@H]4CC[C@H](C4)[C@@H]3C(=O)NCC3(C)CCC3)c(OC(C)C)cc2F)CC1 [Example 485, (1R,4r)-4-(2-Fluoro-4-isopropoxy-5-(((1S,2R,3S,4R)-3-(((1-methylcyclobutyl)methyl)carbamoyl)bicyclo[2.2.1]heptan-2-yl)carbamoyl)phenoxy)-1-(methoxycarbonyl)cyclohexane-1-carboxylic acid]
- Test A Sinf: 95%

SMILES: COc1cc(F)c(O[C@H]2CC[C@@H](C(=O)O)CC2)cc1C(=O)N[C@H]1[C@@H](C(=O)Nc2ccc(F)c(S(=O)(=O)C(F)(F)F)c2)[C@@H]2C=C[C@H]1C2 [Example 489]
- Test A Sinf: 115%
- EC50: 12 nM

SMILES: COc1cc(F)c(O[C@H]2CC[C@@H](C(=O)O)CC2)cc1C(=O)N[C@@H]1[C@@H]2C[C@@H]([C@@H](O)[C@H]2O)[C@@H]1C(=O)Nc1cccc(S(=O)(=O)C(F)(F)F)c1 [Example 494]
- Test A Sinf: 90%
- EC50: 6900 nM

SMILES: COc1cc(F)c(O[C@H]2CC[C@@H](C(=O)O)CC2)cc1C(=O)N[C@@H]1[C@H](C(=O)Nc2ccc(F)c(C(F)(F)F)c2)[C@H]2C=C[C@@H]1C2 [Example 501, (1R,4s)-4-(2-Fluoro-5-(((1S,2S,3R,4R)-3-((4-fluoro-3-(trifluoromethyl)phenyl)carbamoyl)bicyclo[2.2.1]hept-5-en-2-yl)carbamoyl)-4-methoxyphenoxy)cyclohexane-1-carboxylic acid]
- Test A Sinf: 82%

SMILES: COc1cc(F)c(O[C@H]2C[C@@](C)(C(=O)O)C2)cc1C(=O)N[C@@H]1[C@@H]2CC[C@@H](C2)[C@@H]1C(=O)Nc1cccc(S(=O)(=O)C(F)(F)F)c1 [Example 505, (1S,3s)-3-(2-Fluoro-4-methoxy-5-(((1R,2R,3S,4S)-3-((3-((trifluoromethyl)sulfonyl)phenyl)carbamoyl)bicyclo[2.2.1]heptan-2-yl)carbamoyl)phenoxy)-1-methylcyclobutane-1-carboxylic acid]
- Test A Sinf: 94%
- EC50: 14 nM

SMILES: COc1cc(F)c(O[C@H]2CC[C@@](OC)(C(=O)O)CC2)cc1C(=O)N[C@@H]1[C@H]2CC[C@H](C2)[C@@H]1C(=O)NCC1(C)CCC1 [Example 506, (1R,4r)-4-(2-Fluoro-4-methoxy-5-(((1S,2R,3S,4R)-3-(((1-methylcyclobutyl)methyl)carbamoyl)bicyclo[2.2.1]heptan-2-yl)carbamoyl)phenoxy)-1-methoxycyclohexane-1-carboxylic acid]
- Test A Sinf: 98%
- EC50: 320 nM
